Source: patent US12060570B2, “Vector-free intracellular delivery by reversible permeabilisation” (Avectas Limited, priority 2016, dated 2024)

Columns and labels:
Format in all cases: cell-based
A549 cells [1] = assay: Endocytosis inhibitor pretreatment, EGFP mRNA expression; conditions: n=3; for Expression of EGFP mRNA delivered by soluporation in the presence of inhibitor: pretreatment: Dynasore 4 mM, chloropromazine 20 μM, Nystatin 20 μg/ml, EIPA 100 μM
Procedure: To test the contribution of alternate uptake mechanisms such as active pathways and internalization in endocytotic vesicles, A549 cells were pretreated with Dynasore (4 mM) or chloropromazine (20 μM) to inhibit clathrin-mediated endocytosis or Nystatin (20 μg/ml) or EIPA (100 μM) to inhibit caveolar-mediated endocytosis and micropinocytosis respectively.

A549 cells [2] = assay: Resealing of plasma membrane after permeabilization, PI uptake by flow cytometry; conditions: delivery solution without cargo, PI 100 μg/ml, n=3
Procedure: It was noted that the delivery method was very gentle on cells with little if any cell death or damage evident. […] To examine the rate of recovery of the cell membrane after permeabilization, delivery solution was applied to A549 cells in the absence of cargo. At subsequent time points (0 to 182.5 min), this delivery solution was removed and 50 μl PBS containing propidium iodide (PI) (100 μg/ml) is added. After 2 min incubation, the PI solution was removed and the cells were harvested. PI uptake was analysed by flow cytometry. For basal levels of PI uptake, untreated cells received 50 μl PI in PBS. […] After 6 minutes there is no further uptake. Thus not only do the cells load within 2 minutes of exposure to the delivery solution, but the membrane has effectively recovered its integrity within 6 minutes of beginning the procedure.

Jurkat cells = assay: Delivery of fluorescently-labelled proteins to Jurkat monolayer on transwell insert, flow cytometry; conditions: soluporation
Procedure: In order to form a monolayer of suspension cells that would allow the cells to be presented optimally to the spray, a transwell insert system was used. Cells were seeded at 1×10^6 in 400 μl per insert and the media was removed by placing the transwell insert (Greiner bio-one; CAT #655640; 12 Well ThinCert; PET 0.4 μm) into a device that allowed a vacuum to be applied to the bottom of the insert (between −0.5 bar and −0.65 bar; see FIGS. 14A, B, C). Once the media was removed the remaining cells formed a monolayer to which the spray can be applied. Non-adherent cells such as PBMCs, primary T-cells, or a cell line, e.g., Jurkat T cells, were added to the insert system, the vacuum applied and the insert placed into a 12 well plate and sprayed with delivery solution (10 lid) containing test payload such as either fluorescently-labelled beta-lactoglobulin (BLG), bovine serum albumin (BSA) or ovalburnin (OVA). Stop solution (50 μl) was applied after a 2 minute incubation and 30 s later normal media (100 μl) was applied.

| Compound | Expression of EGFP mRNA delivered by soluporation in the presence of inhibitor (A549 cells [1]) | other results |
| --- | --- | --- |
| O=C(N/N=C/c1ccc(O)c(O)c1)c1cc2ccccc2cc1O [Dynasore] | remained unchanged | GFP expression in lipofected cells (Lipofectamine 2000) (A549 cells [1]; Dynasore treated): significantly reduced |
| CCN(c1nc(N)c(C(=O)NC(=N)N)nc1Cl)C(C)C [EIPA] | remained unchanged | – |
| C[C@@H]1[C@H](O)[C@@H](C)/C=C/C=C/CC/C=C/C=C/C=C/C=C/C(O[C@H]2O[C@H](C)[C@@H](O)[C@H](N)[C@@H]2O)CC2O[C@](O)(CC(O)C(O)CCC(O)CC(O)CC(O)CC(=O)O[C@H]1C)CC(O)C2C(=O)O (some centres unmarked) [Nystatin] | remained unchanged | – |
| CN(C)CCCN1c2ccccc2Sc2ccc(Cl)cc21 [chloropromazine] | remained unchanged | – |
| CC[N+](C)(CC)CCC[n+]1c(-c2ccccc2)c2cc(N)ccc2c2ccc(N)cc21.[I-].[I-] [propidium iodide] | – | time post treatment over which cells remain permeable to PI before resealing (A549 cells [2]): ≤ 6 min |
| bovine serum albumin [BSA] | – | Expression levels (fluorescently-labelled protein) (Jurkat cells): 28.5% |
| ovalbumin | – | Expression levels (fluorescently-labelled protein) (Jurkat cells): 15.3% |
